Source: ChEMBL document CHEMBL1201862, “PubChem BioAssay data set” (2004)
Structures can show the parent of a compound that is named as a salt.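 Following 48 hours of exposure in 96-well plates, responses at five concentrations were used to interpolate endpoints linearly. At the GI50, growth is halved.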 Calls of active or inactive are those of the source. Cut-off read from the data, not from the text of the source: active = GI50 up to about 1.1 µM and inactive = higher.

What was measured:
Test in all cases: NCI anticancer screen, dose series, 48 h
SN12C = test system: SN12C
A498 = test system: A498
SW-620 = test system: SW-620
LOX IMVI = test system: LOX IMVI
CAKI-1 = test system: CAKI-1
M14 = test system: M14
NCI-H226 = test system: NCI-H226
LXFL 529 = test system: LXFL 529
HCT-15 = test system: HCT-15
SNB-75 = test system: SNB-75
OVCAR-3 = test system: OVCAR-3
EKVX = test system: EKVX
SK-MEL-28 = test system: SK-MEL-28
SF-539 = test system: SF-539
SF-295 = test system: SF-295
786-0 = test system: 786-0
SR = test system: SR
Hs-578T = test system: Hs-578T
MDA-N = test system: MDA-N
PC-3 = test system: PC-3

Row | SMILES | GI50 (SN12C) | GI50 (A498) | GI50 (SW-620) | GI50 (LOX IMVI) | GI50 (CAKI-1) | GI50 (M14) | GI50 (NCI-H226) | GI50 (LXFL 529) | GI50 (HCT-15) | GI50 (SNB-75) | GI50 (OVCAR-3) | GI50 (EKVX) | GI50 (SK-MEL-28) | GI50 (SF-539) | GI50 (SF-295) | GI50 (786-0) | GI50 (SR) | GI50 (Hs-578T) | GI50 (MDA-N) | GI50 (PC-3)
1 | Nc1ccc(C(=O)CC2(O)C(=O)Nc3ccccc32)cc1 (centres undefined) | > 100 µM (inactive) | > 100 µM (inactive) | > 100 µM (inactive) | > 100 µM (inactive) | > 100 µM (inactive) | > 100 µM (inactive) | > 100 µM (inactive) | > 100 µM (inactive) | > 100 µM | 92.9 µM (inactive) | > 100 µM (inactive) | > 100 µM (inactive) | > 100 µM (inactive) | > 100 µM (inactive) | > 100 µM (inactive) | > 100 µM (inactive) | – | – | – | –
2 | CC(NC(C)(C)C)C(=O)c1cccc(Cl)c1 (centres undefined) [BUPROPION HYDROCHLORIDE] | > 100 µM (inactive) | > 100 µM (inactive) | > 100 µM (inactive) | > 100 µM (inactive) | > 100 µM (inactive) | > 100 µM (inactive) | – | > 100 µM (inactive) | – | > 100 µM (inactive) | > 100 µM (inactive) | > 100 µM (inactive) | > 100 µM (inactive) | > 100 µM (inactive) | > 100 µM (inactive) | > 100 µM (inactive) | – | – | – | –
3 | CC1CC2(CCC1OCc1ccccc1)OCCO2 (centres undefined) | > 100 µM (inactive) | > 100 µM (inactive) | > 100 µM (inactive) | > 100 µM (inactive) | > 100 µM (inactive) | > 100 µM (inactive) | – | > 100 µM (inactive) | > 100 µM | – | > 100 µM (inactive) | > 100 µM (inactive) | – | > 100 µM (inactive) | > 100 µM (inactive) | > 100 µM (inactive) | – | – | – | –
4 | Nn1c(-c2cccc(Cl)c2)nc2ccccc2c1=O | > 100 µM (inactive) | > 100 µM (inactive) | > 100 µM (inactive) | – | > 100 µM (inactive) | > 100 µM (inactive) | > 100 µM (inactive) | > 100 µM (inactive) | > 100 µM | > 100 µM (inactive) | > 100 µM (inactive) | > 100 µM (inactive) | > 100 µM (inactive) | > 100 µM (inactive) | > 100 µM (inactive) | > 100 µM (inactive) | – | – | – | –
5 | CCOC(=O)C1=C(C)CC2C(=O)OC(=O)C2C1(C)C (centres undefined) | > 100 µM (inactive) | – | > 100 µM (inactive) | – | – | > 100 µM (inactive) | > 100 µM (inactive) | > 100 µM (inactive) | > 100 µM | – | > 100 µM (inactive) | > 100 µM (inactive) | > 100 µM (inactive) | > 100 µM (inactive) | > 100 µM (inactive) | > 100 µM (inactive) | > 100 µM (inactive) | – | – | –
6 | COc1ccc(OC2OC(CO)C(O)C(O)C2O)cc1 (centres undefined) | > 100 µM (inactive) | > 100 µM (inactive) | > 100 µM (inactive) | > 100 µM (inactive) | > 100 µM (inactive) | > 100 µM (inactive) | > 100 µM (inactive) | – | > 100 µM | > 100 µM (inactive) | > 100 µM (inactive) | > 100 µM (inactive) | > 100 µM (inactive) | > 100 µM (inactive) | > 100 µM (inactive) | > 100 µM (inactive) | > 100 µM (inactive) | > 100 µM (inactive) | > 100 µM (inactive) | > 100 µM (inactive)
7 | CCOC(=O)c1nc2ccc(C(F)(F)F)cc2nc1NCc1cc(OC)c(OC)c(OC)c1 | > 100 µM (inactive) | > 100 µM (inactive) | 54.1 µM (inactive) | 35.7 µM (inactive) | > 100 µM (inactive) | > 100 µM (inactive) | > 100 µM (inactive) | – | 48.9 µM | 29.1 µM (inactive) | 55.5 µM (inactive) | 60.3 µM (inactive) | 34 µM (inactive) | 38.6 µM (inactive) | > 100 µM (inactive) | 41.6 µM (inactive) | 7.38 µM (inactive) | 32.3 µM (inactive) | 28.4 µM (inactive) | 41.9 µM (inactive)
8 | Cn1c(=O)[nH]c2nccnc2c1=O | > 10 µM (inactive) | > 10 µM (inactive) | > 10 µM (inactive) | > 10 µM (inactive) | > 10 µM (inactive) | > 10 µM (inactive) | > 10 µM (inactive) | – | > 10 µM | > 10 µM (inactive) | > 10 µM (inactive) | > 10 µM (inactive) | > 10 µM (inactive) | > 10 µM (inactive) | > 10 µM (inactive) | > 10 µM (inactive) | > 10 µM (inactive) | > 10 µM (inactive) | > 10 µM (inactive) | > 10 µM (inactive)
9 | Cc1c2ccncc2c(C)c2c1sc1ccccc12 | 9.38 µM (inactive) | 8.47 µM (inactive) | 7.06 µM (inactive) | 6.18 µM (inactive) | 7.45 µM (inactive) | 11.6 µM (inactive) | 8.13 µM (inactive) | – | 7.24 µM | 14.6 µM (inactive) | 14.6 µM (inactive) | 4.75 µM (inactive) | 13.3 µM (inactive) | 6.73 µM (inactive) | 10.1 µM (inactive) | 4.86 µM (inactive) | 2.19 µM (inactive) | 13.6 µM (inactive) | 13.1 µM (inactive) | 11.1 µM (inactive)
10 | COc1cc2nc3n(c2cc1OC)C(O)c1c(Cl)nc(SC)nc1S3 (centres undefined) | 3.86 µM (inactive) | 6.81 µM (inactive) | 3.33 µM (inactive) | 1.7 µM (inactive) | 7.24 µM (inactive) | 2.67 µM (inactive) | 3.35 µM (inactive) | – | 2.64 µM | 4.47 µM (inactive) | 3.12 µM (inactive) | 15.4 µM (inactive) | 6.19 µM (inactive) | 2.4 µM (inactive) | 7.4 µM (inactive) | 2.35 µM (inactive) | 3.68 µM (inactive) | 2.77 µM (inactive) | 3.36 µM (inactive) | 2.75 µM (inactive)
11 | CCC(CCCN)Nc1cc(OC)cc2c(C)ccnc12 (centres undefined) | 21.2 µM (inactive) | 18.7 µM (inactive) | 20.8 µM (inactive) | 16.3 µM (inactive) | 15.5 µM (inactive) | 15.2 µM (inactive) | 13.3 µM (inactive) | – | 22.9 µM | 12.7 µM (inactive) | 15.4 µM (inactive) | 18.4 µM (inactive) | 16.9 µM (inactive) | 18.4 µM (inactive) | 17.3 µM (inactive) | 15.4 µM (inactive) | 15.3 µM (inactive) | 13 µM (inactive) | 17.5 µM (inactive) | 11.6 µM (inactive)
12 | CCOC(=O)/C=C(/C(=O)OCC)n1cnc2c(=O)[nH]c(NC(C)=O)nc21 | > 100 µM (inactive) | > 100 µM (inactive) | > 100 µM (inactive) | > 100 µM (inactive) | > 100 µM (inactive) | > 100 µM (inactive) | > 100 µM (inactive) | – | > 100 µM | > 100 µM (inactive) | > 100 µM (inactive) | > 100 µM (inactive) | > 100 µM (inactive) | > 100 µM (inactive) | > 100 µM (inactive) | > 100 µM (inactive) | > 100 µM (inactive) | > 100 µM (inactive) | > 100 µM (inactive) | > 100 µM (inactive)
13 | CC(=O)CC(=O)OC1CC(C)CCC1C(C)C (centres undefined) | > 100 µM (inactive) | > 100 µM (inactive) | 43.1 µM (inactive) | 47.6 µM (inactive) | > 100 µM (inactive) | > 100 µM (inactive) | – | 89.5 µM (inactive) | 38.7 µM | 73.3 µM (inactive) | 26 µM (inactive) | > 100 µM (inactive) | 63.4 µM (inactive) | 36.8 µM (inactive) | 80.7 µM (inactive) | > 100 µM (inactive) | – | – | – | –
14 | CC(=O)O/N=C1\C=Cc2c(no[n+]2[O-])C1=O | 18.5 µM (inactive) | 16.4 µM (inactive) | 3.37 µM (inactive) | 18 µM (inactive) | 20.5 µM (inactive) | 18.6 µM (inactive) | > 100 µM (inactive) | – | 19.8 µM | 19.8 µM (inactive) | 16.2 µM (inactive) | 17.3 µM (inactive) | 21.6 µM (inactive) | 17.3 µM (inactive) | > 100 µM (inactive) | 19.3 µM (inactive) | 15.8 µM (inactive) | 20.8 µM (inactive) | 17.6 µM (inactive) | 17 µM (inactive)
15 | Cc1nc2c(n1CCO)C(=O)c1ccccc1C2=O | 31.4 µM (inactive) | – | 32.8 µM (inactive) | 23.4 µM (inactive) | – | 21.4 µM (inactive) | > 100 µM (inactive) | 36.6 µM (inactive) | 31.5 µM | 82.2 µM (inactive) | 24.3 µM (inactive) | 55 µM (inactive) | 93.3 µM (inactive) | 29.9 µM (inactive) | 48.4 µM (inactive) | 46.9 µM (inactive) | 26.4 µM (inactive) | – | – | –
16 | CC(=O)O[C@H]1CCC2[C@@H]3CCC4Nc5[nH]ncc5C[C@]4(C)C3CC[C@@]21C (some centres undefined) | > 100 µM (inactive) | > 100 µM (inactive) | 36.8 µM (inactive) | 0.405 µM (active) | 45.1 µM (inactive) | 21.4 µM (inactive) | > 100 µM (inactive) | 28.5 µM (inactive) | 44.6 µM | 54 µM (inactive) | 32.4 µM (inactive) | 35.1 µM (inactive) | – | > 100 µM (inactive) | > 100 µM (inactive) | > 100 µM (inactive) | – | – | – | –
17 | CNC(=O)NCCCCC(NC(C)=O)C(=O)NCc1ccccc1 (centres undefined) | > 100 µM (inactive) | > 100 µM (inactive) | > 100 µM (inactive) | > 100 µM (inactive) | > 100 µM (inactive) | > 100 µM (inactive) | > 100 µM (inactive) | > 100 µM (inactive) | > 100 µM | 47.1 µM (inactive) | > 100 µM (inactive) | > 100 µM (inactive) | > 100 µM (inactive) | > 100 µM (inactive) | > 100 µM (inactive) | > 100 µM (inactive) | – | – | – | –
